Data as given in ChEMBL document CHEMBL3886228, “Substituted benzopiperazines as CETP inhibitors” (2015).

target: T1, Cholesteryl ester transfer protein (Homo sapiens, UniProt P11597); assay: Scintillation Proximity Assay (SPA): First, low density lipoprotein (LDL) (Meridian) was biotinylated by incubating LDL with biotin for 1 hour on ice, after which it was dialyzed to remove free biotin. Then compounds at varying concentrations were incubated with 15 nM CETP (reagent production group, In Vitro Pharmacology, MRL Rahway) and 50 ug/ml of the biotinylated LDL in 50 mM HEPES, 150 mM NaCl, pH 7.4, for 1 hour at 37° C. The reaction was started by adding 3H-cholesterol ester high density lipoprotein (HDL) (American Radiochemicals Corp) at a concentration of ~0.6 nM. The reaction proceeded for 2 hours at 37° C., after which time it was quenched by the addition of 12% acetic acid. PVT streptavadin-coated scintillation proximity beads, which had been brought to room temperature, were then added at a concentration of 4 mg/ml. The assay was then mixed and counted after one half hour in a Microbeta plate reader.
T1 sequence (P11597 whole entry): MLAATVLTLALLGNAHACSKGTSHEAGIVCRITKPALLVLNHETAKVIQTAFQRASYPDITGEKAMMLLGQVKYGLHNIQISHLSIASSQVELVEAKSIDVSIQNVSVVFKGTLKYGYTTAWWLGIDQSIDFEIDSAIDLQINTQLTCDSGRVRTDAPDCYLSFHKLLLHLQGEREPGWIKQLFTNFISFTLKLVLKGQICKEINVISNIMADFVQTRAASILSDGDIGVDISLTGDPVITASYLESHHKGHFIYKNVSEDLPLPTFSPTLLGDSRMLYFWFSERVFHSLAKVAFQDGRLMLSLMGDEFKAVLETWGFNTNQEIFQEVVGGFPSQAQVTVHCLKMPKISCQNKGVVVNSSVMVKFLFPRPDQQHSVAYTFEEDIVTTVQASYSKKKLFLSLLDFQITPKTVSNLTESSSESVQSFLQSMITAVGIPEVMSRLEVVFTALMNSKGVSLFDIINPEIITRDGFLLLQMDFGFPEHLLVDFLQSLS

Q: `COc1cccc(CN2C[C@@H](c3cccc(C(F)(F)F)c3)N(C[C@@H](O)C(F)(F)F)c3ccccc32)n1` was tested. Which IC50 did it give?
A: 630 nM

Q: How did the IC50 turn out when `O[C@H](CN1c2ccccc2N(Cc2cccc(OC(F)(F)F)c2)C[C@H]1c1cccc2ccccc12)C(F)(F)F` was run?
A: 1430 nM

Q: With `CC(C)Oc1cccc(CN2C[C@@H](c3cccc(C(F)(F)F)c3)N(C[C@@H](O)C(F)(F)F)c3ccccc32)n1` as the compound, how does the IC50 read?
A: 750 nM

Q: How did the IC50 turn out when `CCOc1cccc(CN2C[C@@H](c3cccc(C(F)(F)F)c3)N(C[C@@H](O)C(F)(F)F)c3ccccc32)n1` was run?
A: 310 nM

Q: Which IC50 does the source give for `COc1cccnc1CN1C[C@@H](c2cccc(C(F)(F)F)c2)N(C[C@@H](O)C(F)(F)F)c2ccccc21` here?
A: 210 nM

Q: With `Cc1cc(CN2C[C@@H](c3cccc(C(F)(F)F)c3)N(C[C@@H](O)C(F)(F)F)c3ccccc32)cc(Cl)n1` as the compound, how does the IC50 read?
A: 67 nM
